For series [1], the system named is mouse colon carcinoma (CT-26) cells.
A short description of series [2]: Singlet oxygen measurement, direct evaluation (1O2 luminescence at 1270 nm). It counts as physicochemical. Here is the method:
The samples were prepared in an air saturated CH3CN or D2O solution with an absorbance of 0.2 at 450 nm. This solution was irradiated in fluorescence quartz cuvettes (width 1 cm) using a mounted M450LP1 LED (Thorlabs) whose irradiation, centered at 450 nm, has been focused with aspheric condenser lenses. The intensity of the irradiation has been varied using a T-Cube LED Driver (Thorlabs) and measured with an optical power and energy meter. The emission signal was focused and collected at right angle to the excitation pathway and directed to a Princeton Instruments Acton SP-2300i monochromator. A longpass glass filter was placed in front of the monochromator entrance slit to cut off light at wavelengths shorter than 850 nm. As a detector an EO-817L IR-sensitive liquid nitrogen cooled germanium diode detector (North Coast Scientific Corp.) has been used. The singlet oxygen luminesce at 1270 nm was measured by recording spectra from 1100 to 1400 nm. For the data analysis, the singlet oxygen luminescence peaks at different irradiation intensities were integrated. The resulting areas were plotted against the percentage of the irradiation intensity and the slope of the linear regression calculated. The absorbance of the sample was corrected with an absorbance correction factor. As reference for the measurement Rose Bengal (Φ=76%) (Kochevar, I. E. and Redmond, R. W., 2000) was used and the singlet oxygen quantum yields were calculated using the following formula:
Φsample=Φreference*(Ssample/Sreference)*(Ireference/Isample)
Φ=singlet oxygen quantum yield, S=slope of the linear regression of the plot of the areas of the singlet oxygen luminescence peaks against the irradiation intensity, I=absorbance correction factor, […] of the irradiation source, A=absorbance of the sample at irradiation wavelength.

For series [3], the system named is human glioblastoma astrocytoma (U373) cells. In words: (Photo-)cytotoxicity on 2D cell monolayers, resazurin assay, U373. The conditions noted are these: for IC50: compounds 1-3 as chloride salts; for PI (480 nm): U373, dark vs 480 nm (10 min, 3.1 J/cm^2); for PI (540 nm): U373, dark vs 540 nm (40 min, 9.5 J/cm^2).
The test system of series [4] is human cervical carcinoma (HeLa) cells. Nature of the series: (Photo-)cytotoxicity on 2D cell monolayers, resazurin assay, HeLa. It is filed as cell-based. The conditions noted are these: for PI (480 nm): dark vs 480 nm (10 min, 3.1 J/cm^2); for PI (540 nm): dark vs 540 nm (40 min, 9.5 J/cm^2). The text has this: Before an experiment, the cells were passaged three times.

Series [5] relates to mouse colon carcinoma (CT-26) cells. In words: (Photo-)cytotoxicity on 2D cell monolayers, resazurin assay, CT-26. As to conditions: for IC50: compounds 1-3 as chloride salts; for PI (480 nm): CT-26, dark vs 480 nm (10 min, 3.1 J/cm^2); for PI (540 nm): CT-26, dark vs 540 nm (40 min, 9.5 J/cm^2).
Series [6] can be described thus: Singlet oxygen measurement, indirect evaluation (RNO absorbance). The conditions noted are these: indirect. It counts as physicochemical. The protocol:
For the measurement in CH3CN: The samples were prepared in an air-saturated CH3CN solution containing the complex with an absorbance of 0.2 at the irradiation wavelength, N,N-dimethyl-4-nitrosoaniline aniline (RNO, 24 μM) and imidazole (12 mM). For the measurement in PBS buffer: The samples were prepared in an air-saturated PBS solution containing the complex with an absorbance of 0.1 at the irradiation wavelength, N,N-dimethyl-4-nitrosoaniline aniline (RNO, 20 μM) and histidine (10 mM). The samples were irradiated on 96 well plates with an Atlas Photonics LUMOS BIO irradiator for different times. The absorbance of the samples was measured during these time intervals with a SpectraMax M2 Microplate Reader (Molecular Devices). The difference in absorbance (A0−A) at 420 nm for the CH3CN solution or at 440 nm a PBS buffer solution was calculated and plotted against the irradiation times. From the plot the slope of the linear regression was calculated as well as the absorbance correction factor determined. The singlet oxygen quantum yields were calculated using the same formulas as used for the direct evaluation.

The subject of series [7] is human glioblastoma astrocytoma (U373) cells.
A short description of series [8]: Emission measurement in CH3CN. It is filed as physicochemical. As to conditions: room temperature, excitation at 355 nm. Here is the method: The absorption of the samples was measured with a SpectraMax M2 Spectrometer (Molecular Devices). The emission was measured by irradiation of the sample in fluorescence quartz cuvettes (width 1 cm) using a NT342B Nd-YAG pumped optical parametric oscillator (Ekspla) at 355 nm. Luminescence was focused and collected at right angle to the excitation pathway and directed to a Princeton Instruments Acton SP-2300i monochromator. As a detector, a XPI-Max 4 CCD camera (Princeton Instruments) has been used.

Series [9] can be described thus: Luminescence lifetime measurements. It counts as physicochemical. As to conditions: excitation at 355 nm. The protocol:
(§1) For the determination of the lifetimes, the samples were prepared in an air saturated and in a degassed CH3CN solution with an absorbance of 0.2 at 355 nm. This solution was irradiated in fluorescence quartz cuvettes (width 1 cm) using a NT342B Nd-YAG pumped optical parametric oscillator (Ekspla) at 355 nm. The emission signal was focused and collected at right angle to the excitation pathway and directed to a Princeton Instruments Acton SP-2300i monochromator. As a detector a R928 photomultiplier tube (Hamamatsu) has been used.

A short description of series [10]: Luminescence quantum yield measurements. As to conditions: CH3CN, room temperature, excitation at 355 nm. It is filed as physicochemical. Also on record: key: fraction, relative to [Ru(bipy)3]Cl2 reference in CH3CN (Φem=5.9%). The protocol:
as §1, with “luminescence quantum yield,” for “lifetimes,”, “an” for “an air saturated and in a degassed”, “0.1” for “0.2”, “XPI-Max 4 CCD camera (Princeton Instruments)” for “R928 photomultiplier tube (Hamamatsu)”, “used. The luminescence quantum yields were determined by comparison with the reference [Ru(bipy)3]Cl2 in CH3CN (Φem=5.9%) (Nakamaru, K., 1982) applying the following formula:” for “used.”
Φem, sample=Φem, reference*(Freference/Fsample)*(Isample/Ireference)*(nsample/nreference)^2
Φem=luminescence quantum yield, F=fraction of light absorbed, I=integrated emission intensities, n=refractive index, A=absorbance of the sample at irradiation wavelength.

Series [11] relates to non-cancerous retinal pigment epithelium (RPE-1) cells. In words: (Photo-)cytotoxicity on 2D cell monolayers, resazurin assay, RPE-1.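 For all read-outs here: cells exposed to compound 4 h, medium exchanged, then irradiated or kept dark, 44 h further growth, viability by resorufin fluorescence (ex 540 nm, em 590 nm).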 As to conditions: for PI (480 nm): RPE-1, dark vs 480 nm (10 min, 3.1 J/cm^2); for PI (540 nm): RPE-1, dark vs 540 nm (40 min, 9.5 J/cm^2).
Description: The human glioblastoma astrocytoma (U373) cell line was cultured in MEM medium supplemented with 10% FBS, 1% NEAA (non-essential amino-acids) and 1% penicillin/streptomycin. […] The human retinal epithelial cells (RPE-1, non-cancerous cells immortalized with hTERT) were cultured in DMEM-F12 medium supplemented with 10% FBS and 1% penicillin/streptomycin. All cell lines were obtained from the American Type Culture Collection (ATCC) and cultured at 37° C. and 5% CO2. Before an experiment, the cells were passaged three times.
The cytotoxicity of the compounds was assessed by measuring cell viability using a fluorometric resazurin assay. The cultivated cells were seeded in triplicates in 96 well plates with a density of 4000 cells per well in 100 μL of media. After 24 h, the medium was removed and the cells were treated with increasing concentrations of the compound diluted in cell media achieving a total volume of 200 μL. The cells were incubated with the compound for 4 h. After this time, the media was removed and replaced with 200 μL of fresh medium. For the phototoxicity studies, the cells were exposed to light with an Atlas Photonics LUMOS BIO irradiator. Each well was constantly illuminated with either a 480 nm or 540 nm irradiation. During this time, the temperature was maintained constantly at 37° C. The cells were grown in the incubator for additional 44 h. For the determination of the dark cytotoxicity, the cells were not irradiated and after the medium exchange directly incubated for 44 h. After this time, the medium was replaced with fresh medium containing resazurin with a final concentration of 0.2 mg/mL. After 4 h incubation, the amount of the fluorescent product resorufin was determined upon excitation at 540 nm and measurement its emission at 590 nm using a SpectraMax M2 Microplate Reader (Molecular Devices).
The obtained data was analyzed with the GraphPad Prism software.
Where [12] appears, read: read-out: IC50 480 nm (10 min, 3.1 J/cm^2), U373, irradiation 480 nm (10 min, 3.1 J/cm^2).
[13] abbreviates: read-out: IC50 dark, U373, dark, 4 h incubation.
Setting [14] is: dark, 4 h incubation, compounds 1-3 as chloride salts, read-out: IC50 dark.
Where [15] appears, read: read-out: IC50 480 nm (10 min, 3.1 J/cm^2), irradiation 480 nm (10 min, 3.1 J/cm^2), compounds 1-3 as chloride salts.
[16] abbreviates: read-out: IC50 540 nm (40 min, 9.5 J/cm^2), irradiation 540 nm (40 min, 9.5 J/cm^2), compounds 1-3 as chloride salts.
Where [17] appears, read: read-out: IC50 540 nm (40 min, 9.5 J/cm^2), CT-26, irradiation 540 nm (40 min, 9.5 J/cm^2).
The mark [18] stands for this setting: read-out: IC50 dark, CT-26, dark, 4 h incubation.

Where two headings read alike, the source gives them in different places. A value given as a limit tells only on which side of the number the result lay.

For `F[P-](F)(F)(F)(F)F.F[P-](F)(F)(F)(F)F.[Ru+2].c1cnc2c(c1)ccc1cccnc12.c1cnc2c(c1)ccc1cccnc12.c1cnc2c(c1)ccc1cccnc12` [[Ru(1,10-phenanthroline)3][PF6]2, reference compound], the IC50 in series [1], in [3] (setting [12]), in series [3] (setting [13]), in series [4] (setting [14]), in [4] (setting [15]) and in [4] (setting [16]) was over 100 µM in each case. Further, the IC50 in [5] (setting [17]), in [5] (setting [18]) and in series [7] was over 100 µM each time. In addition, in series [2], the “Singlet oxygen quantum yield, direct 450 nm CH3CN” value was determined as 25%. For the same molecule, in series [6], the “Singlet oxygen quantum yield, indirect 450 nm CH3CN” value is on record as 23%. In series [6], the “Singlet oxygen quantum yield, indirect 450 nm PBS” value was 2%. The “Singlet oxygen quantum yield, indirect 540 nm CH3CN” value in series [6] worked out at 22%. The “Singlet oxygen quantum yield, indirect 540 nm PBS” value in series [6] is given as 2%.

Regarding `CN(C)c1ccc(/C=C/c2ccnc(-c3cc(/C=C/c4ccc(N(C)C)cc4)ccn3)c2)cc1.CN(C)c1ccc(/C=C/c2ccnc(-c3cc(/C=C/c4ccc(N(C)C)cc4)ccn3)c2)cc1.CN(C)c1ccc(/C=C/c2ccnc(-c3cc(/C=C/c4ccc(N(C)C)cc4)ccn3)c2)cc1.F[P-](F)(F)(F)(F)F.F[P-](F)(F)(F)(F)F.[Ru+2]` [Compound 2, [Ru((E,E′)-4,4′-Bis[p-(N,N-dimethylamino)styryl]-2,2′-bipyridine)3][PF6]2], in series [8], the “λem/nm (Emission maximum)” value is 709 nm. For the same molecule, the IC50 in [1] is 42.6 ± 3.8 µM; in series [3] (setting [12]), 49.1 ± 6 µM; in series [3] (setting [13]) it was over 100 µM; in series [4] (setting [14]), over 100 µM; in series [4] (setting [15]), 29.4 ± 8.3 µM; in [4] (setting [16]) it was 52.3 ± 6.1 µM. Besides, the figures for the IC50 in series [5] (setting [17]), in [5] (setting [18]) and in series [7] were 62.5 ± 8.2 µM, over 100 µM and 61.4 ± 5.6 µM, respectively. The “Singlet oxygen quantum yield, direct 450 nm CH3CN” value in series [2] turned out to be 18%. Moreover, the “τ/ns air (Lifetime)” value in series [9] (air saturated CH3CN) is 48 ns. For the same molecule, in series [9] (degassed CH3CN), the “τ/ns degassed (Lifetime)” value is given as 222 ns. In addition, the “PI (480 nm)” value in [3] was over 2.0; in series [4], over 3.4; in series [5] it was over 2.3; in series [11] it was over 2.6. The “PI (540 nm)” value is reported as over 1.6 in [3], over 1.9 in series [4], over 1.6 in series [5] and over 2.0 in series [11]. In addition, the “ϕem (Luminescence Quantum Yield)” value in [10] is reported as under 0.001. Moreover, the “Singlet oxygen quantum yield, indirect 450 nm CH3CN” value in series [6] is on record as 25%. In series [6], the “Singlet oxygen quantum yield, indirect 450 nm PBS” value came to 3%. Further, the “Singlet oxygen quantum yield, indirect 540 nm CH3CN” value in series [6] came out at 16%. The “Singlet oxygen quantum yield, indirect 540 nm PBS” value in series [6] amounted to 1%.

Turning to “[Ru(4,7-Diphenyl-1,10-phenanthroline)3][PF6]2 [reference compound]”, the IC50 was determined as 0.4 ± 0.2 µM in series [1]; 1.3 ± 0.2 µM in [3] (setting [12]); 10.1 ± 0.7 µM in series [3] (setting [13]); 8.5 ± 0.4 µM in series [4] (setting [14]); 0.7 ± 0.2 µM in series [4] (setting [15]); 1.1 ± 0.2 µM in series [4] (setting [16]). Moreover, the IC50 in series [5] (setting [17]) is 0.5 ± 0.2 µM; in [5] (setting [18]) it was 2.8 ± 0.5 µM; in [7] it was 1.2 ± 0.3 µM. For the same molecule, the “Singlet oxygen quantum yield, direct 450 nm CH3CN” value in [2] is on record as 44%. Moreover, the “PI (480 nm)” value in series [3] was found to be 7.8; in series [4], 12.1; in [5], 7.0; in series [11] it was 13.4. Moreover, the “PI (540 nm)” value worked out at 8.4 in [3], 7.7 in series [4], 5.6 in series [5] and 10.1 in series [11]. The “Singlet oxygen quantum yield, indirect 450 nm CH3CN” value in [6] stood at 47%. Moreover, in series [6], the “Singlet oxygen quantum yield, indirect 450 nm PBS” value is reported as 4%. For the same molecule, the “Singlet oxygen quantum yield, indirect 540 nm CH3CN” value in series [6] is 45%. In addition, the “Singlet oxygen quantum yield, indirect 540 nm PBS” value in series [6] is 3%.

The record behind these values is patent publication US20220409727A1, “Metal Complexes Bearing Bisstyryl-Bipyridine Ligand and Their Use as Photosensitizer Agent in One and Two-Photon Photodynamic Therapy” (Paris Sciences et Lettres, priority 2019, published 2022).
